This note sets out measurements from US6500853B1, “Inhibitors of phospholipase enzymes” (Genetics Institute, LLC, priority 1998, dated 2002).

The test deals with T1, cPLA2 (Homo sapiens, UniProt P47712).
T1 sequence (P47712 1-749): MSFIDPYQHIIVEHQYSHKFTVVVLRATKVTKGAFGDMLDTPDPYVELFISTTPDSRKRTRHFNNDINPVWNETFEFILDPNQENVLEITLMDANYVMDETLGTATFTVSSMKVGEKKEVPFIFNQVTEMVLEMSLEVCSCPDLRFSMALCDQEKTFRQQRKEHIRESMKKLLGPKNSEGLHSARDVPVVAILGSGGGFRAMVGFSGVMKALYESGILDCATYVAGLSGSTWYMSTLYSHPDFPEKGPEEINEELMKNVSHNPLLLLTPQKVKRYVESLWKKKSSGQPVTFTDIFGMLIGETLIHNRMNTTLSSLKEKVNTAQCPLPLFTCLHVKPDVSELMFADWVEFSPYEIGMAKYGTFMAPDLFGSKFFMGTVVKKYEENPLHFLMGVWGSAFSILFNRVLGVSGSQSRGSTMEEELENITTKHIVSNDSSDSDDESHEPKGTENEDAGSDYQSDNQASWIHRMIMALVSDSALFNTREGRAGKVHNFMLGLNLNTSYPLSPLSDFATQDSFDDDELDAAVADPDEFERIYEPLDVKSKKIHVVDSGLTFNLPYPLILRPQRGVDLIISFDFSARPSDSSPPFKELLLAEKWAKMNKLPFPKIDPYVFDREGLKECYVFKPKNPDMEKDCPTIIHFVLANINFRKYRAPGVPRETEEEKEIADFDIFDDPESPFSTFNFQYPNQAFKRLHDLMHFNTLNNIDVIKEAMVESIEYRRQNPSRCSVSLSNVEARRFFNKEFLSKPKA
Put plainly: Coumarin Assay (cPLA2 inhibition). The class given is biochemical. An outline of the steps: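 Percent inhibition at the stated concentration, from the rate of 460 nm emission rise (360 nm excitation) per minute. Reaction started by adding 4 μg enzyme to compound and 60 μM 7-hydroxycoumarinyl 6-heptenoate in Hepes buffer pH 7.5 with 1 mM EDTA.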

Turning to `O=Cc1c(CCOc2ccc(C(=O)O)cc2)c2cc(Cl)ccc2n1C(c1ccccc1)c1ccccc1` [Example 150, 4-[2-(1-benzhydryl-5-chloro-2-formyl-1H-indol-3-yl)ethoxy]benzoic acid], under “Conc 2.5 uM, read-out: % Inhibition”, the inhibition at 2.5 µM came out at 50%.

For the compound `COc1cc(C(=O)NS(=O)(=O)c2ccccc2C)ccc1Cc1cn(C(c2ccccc2)c2ccccc2)c2ccc(NC(=O)OC3CCCC3)cc12` [Example 19, Cyclopentyl N-{1-benzhydryl-3-[2-methoxy-4-({[(2-methylphenyl)sulfonyl]amino}carbonyl)benzyl]-1H-indol-5-yl}carbamate], the inhibition at 2.2 µM (CONCENTRATION 2.2 micromolar, read-out: PERCENT INHIBITION @) is 50%. In addition, the inhibition at 4.2 µM (CONCENTRATION 4.2 micromolar, read-out: PERCENT INHIBITION @) is 50%. The inhibition at 5.8 µM (CONCENTRATION 5.8 micromolar, read-out: PERCENT INHIBITION @) stood at 50%. Further, where the note is “CONCENTRATION 6.25 micromolar, read-out: PERCENT INHIBITION @”, the inhibition at 6.25 µM came out at 52%. For the same compound, the inhibition at 7.8 µM (CONCENTRATION 7.8 micromolar, read-out: PERCENT INHIBITION @) was found to be 50%. For the setting “CONCENTRATION 9 micromolar, read-out: PERCENT INHIBITION @”, the inhibition at 9 µM turned out to be 50%. For the setting “CONCENTRATION 11 micromolar, read-out: PERCENT INHIBITION @”, the inhibition at 11 µM was 50%. The inhibition at 12 µM (CONCENTRATION 12 micromolar, read-out: PERCENT INHIBITION @) was found to be 50%.

As for `O=C(O)c1ccc(Cc2cn(C(c3ccccc3)c3ccccc3)c3cc(Cl)ccc23)c(O)c1` [Example 130, ′4-[(1-benzhydryl-6-chloro-1H-indol-3-yl)methyl]-3-hydroxybenzoic acid], for the setting “CONCENTRATION 2 micromolar”, the “PERCENT INHIBITION @” value is 50%.

In the case of `Cc1c(CCS(=O)(=O)c2ccc(CCC(=O)O)cc2)c2cc(Cl)ccc2n1C(c1ccccc1)c1ccccc1` [Example 169, 3-(4-{[2-(1-Benzhydryl-5-chloro-2-methyl-1H-indol-3-yl)ethyl]sulfonyl}phenyl)propanoic acid], the inhibition at 0.45 µM (Conc 0.45 uM, read-out: % Inhibition) was determined as 50%.

For the compound `Cn1c(CSc2ccc3ccccc3c2)c(C(=O)C(=O)Nc2cccc(C(=O)O)c2)c2cc(OCc3ccccc3)ccc21` [Example 113, 3-[(2-{5-(benzyloxy)-1-methyl-2-[(2-naphthylsulfanyl)methyl]-1H-indol-3-yl}-2-oxoacetyl)amino]benzoic acid], the inhibition at 7.5 µM (CONCENTRATION 7.5 micromolar, read-out: PERCENT INHIBITION @) is 50%. For the same compound, the inhibition at 8 µM (CONCENTRATION 8 micromolar, read-out: PERCENT INHIBITION @) was 50%.

Regarding `O=C(O)C1CC1Cc1cn(C(c2ccccc2)c2ccccc2)c2cc(Cl)ccc12` (centres unmarked) [Example 126, 2-[(1-benzhydryl-6-chloro-1H-indol-3-yl)methyl]cyclopropanecarboxylic acid], the inhibition at 5.5 µM (CONCENTRATION 5.5 micromolar, read-out: PERCENT INHIBITION @) came to 50%.

In the case of `Cc1cc(Cc2cn(C(c3ccccc3)c3ccccc3)c3cc(Cl)ccc23)cc(C)c1OCC(=O)O` [Example 117, 2-{4-[(1-benzhydryl-6-chloro-1H-indol-3-yl)methyl]-2,6-dimethylphenoxy}acetic acid], the inhibition at 1.6 µM (CONCENTRATION 1.6 micromolar, read-out: PERCENT INHIBITION @) is 50%.

For the compound `O=C(Nc1cccc(C(=O)O)c1)C(=O)c1cn(CCCOc2ccc(Cc3ccccc3)cc2)c2ccccc12` [Example 62, 3-[(2-{1-[3-(4-benzylphenoxy)propyl]-1H-indol-3-yl}-2-oxoacetyl)amino]benzoic acid], for the setting “CONCENTRATION 7 micromolar, read-out: PERCENT INHIBITION @”, the inhibition at 7 µM turned out to be 50%. Moreover, the inhibition at 12.5 µM (CONCENTRATION 12.5 micromolar, read-out: PERCENT INHIBITION @) was 86%.

As to `Cc1c(CCOc2ccc(CCC(=O)O)cc2)c2cc(Cl)ccc2n1C(c1ccccc1)c1ccccc1` [Example 171, 3-{4-[2-(1-Benzhydryl-5-chloro-2-methyl-1H-indol-3-yl)ethoxy]phenyl}propanoic acid (10)], for the setting “Conc 0.4 uM”, the “% Inhibition” value is given as 50%.

Regarding `COc1cc(C(=O)NS(=O)(=O)c2ccc(N3N=C(C)CC3=O)cc2)ccc1Cc1cn(C(c2ccccc2)c2ccccc2)c2ccc(NC(=O)OC3CCCC3)cc12` [Example 35, cyclopentyl N-(1-benzhydryl-3-{2-methoxy-4[({[4-(3-methyl-5-oxo-4,5-dihydro-1H-pyrazol-1-yl)phenyl]sulfonyl}amino)carbonyl]benzyl}-1H-indol-5-yl)carbamate], the inhibition at 10 µM (CONCENTRATION 10 micromolar, read-out: PERCENT INHIBITION @) came out at 23%. For the same compound, the inhibition at 20 µM (CONCENTRATION 20 micromolar, read-out: PERCENT INHIBITION @) was found to be 42%. Besides, the inhibition at 41 µM (CONCENTRATION 41 micromolar, read-out: PERCENT INHIBITION @) was 50%.

For the compound `O=C1NC(=O)/C(=C\c2cn(CCCOc3cccc(Cc4ccccc4)c3)c3ccccc23)S1` [Example 82A, 5-((E)-{1-[3-(3-benzylphenoxy)propyl]-1H-indol-3-yl}methylidene)-1,3-thiazolane-2,4-dione], the inhibition at 46 µM (CONCENTRATION 46 micromolar, read-out: PERCENT INHIBITION @) is 50%. Moreover, the inhibition at 50 µM (CONCENTRATION 50 micromolar, read-out: PERCENT INHIBITION @) came to 50%.

A word on the inhibition: it is the share of the control response that was lost under treatment. As a reminder, the % Inhibition is the share of the control response that was lost under treatment. Low readings indicate a response near the control, high ones a response far below the control.
